Measured values reported in the NIST ThermoML archive (doi:10.1016/j.jct.2006.01.013).
± gives the expanded uncertainty stated by the source.

Conditions: 101.33 kPa, Liquid

Q: With `CCCCCC[n+]1ccn(C)c1.O=S(=O)([N-]S(=O)(=O)C(F)(F)F)C(F)(F)F` as the compound, how does the mass density (290.95 K) read?
A: The mass density was 1378.1 ± 0.8 kg/m3.

Q: What about the mass density (292.95 K) of the same compound?
A: The mass density was 1376.3 ± 0.8 kg/m3.

Q: And the mass density (294.95 K)?
A: Its mass density is 1374.4 ± 0.8 kg/m3.

Q: What about the mass density (296.95 K) of the same compound?
A: Its mass density is 1372.6 ± 0.8 kg/m3.

Q: And the mass density (299 K)?
A: The mass density was 1370.8 ± 0.8 kg/m3.

Q: What about the mass density (301 K) of the same compound?
A: Its mass density is 1369 ± 0.8 kg/m3.

Q: What about the mass density (303 K) of the same compound?
A: The mass density was 1367.2 ± 0.8 kg/m3.

Q: What about the mass density (305.05 K) of the same compound?
A: The mass density was 1365.3 ± 0.8 kg/m3.

Q: What about the mass density (307.05 K) of the same compound?
A: The mass density was 1363.5 ± 0.8 kg/m3.
